Consider one compound from US20100216779A1 (GLAXOSMITHKLINE LLC, priority 2007, published 2010).

One experiment addresses T1, human IGF1R (hIGF1R) (Homo sapiens, UniProt P08069).
T1 construct: containing amino acid residues 957-1367 of human IGF1R; made in house; host or cells: Sf9 cells, baculovirus
The experiment is described as follows: IGF1R TR-FRET assay using peptide as the phosphoacceptor. Particulars: 10 μM ATP, 0.5 nM activated enzyme; read-out: IGF-1R pIC50 (converted). Format: biochemical. As for the experimental part:
A. IR and IGF1 R Time Resolved Fluorescence Resonance Energy Transfer (TR-FRET) Assay Using Peptide as the Phosphoacceptor
Substrate phosphorylation assays are carried out as follows:
The Source of Substrate Peptide
The biotinylated substrate peptide, (sequence-Biotin-aminohexyl-AEEEEY*[…]-NH2) SEQ. ID. 1 is purchased from QCB, Inc. (Hopkinton, Mass.). Purity is determined by HPLC. The calculated molecular mass of the peptide is 2216 dalton. Tyrosine phosphorylation by human IGF1R (hIGF1R) or human IR (hIR) occurs as indicated (Y*) in the peptide sequence described. Solid peptide sample is dissolved to approximately 1 mM in DMSO, aliquoted, and stored at −20° C. until use. True peptide concentration is determined by amino acid analysis.
The Source of Enzyme: • hIGF1R: GST-rTEV-IGF-1R (957-1367) containing amino acid residues 957-1367 of human IGF1R (as annotated by National Center for Biotechnology Information (NCBI) accession number NP_000866) is purified from a baculovirus expression system in Sf9 cells using Glutathione Sepharose 4FF column chromatography followed by Sephadex-200 size exclusion column chromatography. Enzyme purity of approximately 95% is achieved. Samples, in 25 mM Tris-HCl, 250 mM NaCl, 5% glycerol, 1 mM DTT, pH 7.5, are stored at −80° C. until use. • hIR: GST-rTEV-IR(979-1382) containing amino acid residues 979-1382 of human IR (as annotated by NCBI accession number NP_000199) is expressed and purified by the same process as hIGF1R. Enzyme purity of approximately 92% is achieved. Samples, in 25 mM Tris-HCl, 250 mM NaCl, 5% glycerol, 1 mM DTT, pH 7.5, are stored at −80° C. until use.
Activation of hIGF1R and hIR by Autophosphorylation: • hIGF1R: Activation of GST-rTEV-IGF-1R(957-1367) is achieved by a 4 minute incubation of hIGF1R (2.7 μM final) with 2 mM ATP in 50 mM HEPES, 20 mM MgCl2, 0.1 mg/mL BSA, at room temperature. Autophosphorylation is stopped by addition of EDTA (to 100 mM final). Aliquoted samples are flash frozen in liquid nitrogen and stored at −80° C. until use. • hIR: Activation of […] is achieved by a 5 minute incubation of hIR (2.7 μM final) with 2 mM ATP in 100 mM HEPES, 10 mM MgCl2, 0.1 mg/mL BSA, at room temperature. Autophosphorylation is stopped by addition of EDTA (to 100 mM final). Aliquoted samples are flash frozen in liquid nitrogen and stored at −80° C. until use. • Kinase Assay of Purified hIGF1R or hIR:
Assays are performed in 384-well (Greiner, Catalog No. 784076) microtiter plates. Reaction buffer (50 mM HEPES buffer, pH 7.5; 10 mM MgCl2; 3 mM DTT; 1 mM CHAPS; 0.1 mg/mL BSA) for peptide phosphorylation (10 μl volume) contained, in final concentrations, 500 nM biotinylated peptide substrate; 10 μM ATP; and purified, activated hIGF1R or hIR (0.5 nM). Some compounds were initially assayed against IGF1R in buffer without DTT or CHAPS. […] Compounds, titrated in DMSO, are evaluated at eleven concentrations ranging from 50 μM to 0.2 nM. […] No effect on activity relative to controls without DMSO is observed for hIGF1R or IR at these DMSO amounts. Reactions are incubated for 1 hour at room temperature and are stopped by a 5 μl addition of EDTA (to 33 mM). A further addition of 5 μl detection reagents (for final 7 nM Streptavidin-APC (PerkinElmer #CR130-150), 1 nM Europium-labeled anti-phosphotyrosine monoclonal antibody (PerkinElmer #AD0067), added in reaction buffer (without DTT), is required for signal generation. After 30 minutes, signal is read on PerkinElmer Viewlux microplate imager or Wallac Victor fluorometer.
Data were fitted to the curve described by:
y=((Vmax*x)/(K+x)) where • Vmax is the upper asymptote and • K is the IC50.
The results for each tested compound were recorded as pIC50 calculated as follows: […]
For orientation: Time-resolved FRET reads energy transfer from a long-lived donor to a nearby acceptor.

Another experiment has as its target T2, human IR (hIR) (Homo sapiens, UniProt P06213).
T2 construct: containing amino acid residues 979-1382 of human IR; GST (N); rTEV protease site (linker between GST and kinase) (N); made in house; host or cells: Sf9 cells, baculovirus (same process as hIGF1R)
The experiment is described as follows: IR TR-FRET assay using peptide as the phosphoacceptor. Format: biochemical. Particulars: 10 μM ATP, 0.5 nM activated enzyme; read-out: IR pIC50 (converted).

The next experiment relates to COLO205 (colon). The experiment is described as follows: Inhibition of cell proliferation, CellTiter-Glo, COLO205. Particulars: Homo sapiens, COLO 205, 72 h. Format: cell-based. A digest of the protocol: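 Exponentially growing COLO205 cells in medium with 10% FBS were plated below 2000 cells/well at 37 °C, 5% CO2. Untreated wells served as controls.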
In general terms: Cellular ATP, detected with luciferase, serves as a proxy for viable cell number.

Experiment [1] concerns NCI-H929 (multiple myeloma). The experiment is described as follows: Inhibition of cell proliferation, CellTiter-Glo, NCI-H929. Format: cell-based. Particulars: Homo sapiens, 72 h. Summed up: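 Cells were grown in medium with 10% FBS at 37° C, 5% CO2. Cell number was read as CellTiter-Glo luminescence (cellular ATP), with untreated wells as control.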
Experiment [2] concerns the target T3, human IGF-1R (NIH-3T3 cells over expressing human IGF-1R) (Homo sapiens, UniProt P08069).
T3 construct: expressed in transfected cells; host or cells: NIH-3T3 (mouse fibroblasts)
The experiment in a line: IGF-1R cellular autophosphorylation (DELFIA). Format: cell-based. The conditions noted are these: IGF-1 stimulated. A digest of the protocol: (§1)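 Autophosphorylation of IGF-1R or IR is measured in NIH-3T3 lines overexpressing each human receptor after 2 h compound pretreatment and a 15 min ligand challenge (IGF-1 30 ng/mL; insulin 3 ug/mL). Fluorescence is normalised to 100% stimulation.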

Experiment [3] concerns the target T4, IR (NIH-3T3 cells over expressing human IGF-1R or IR) (Homo sapiens, UniProt P06213).
T4 construct: expressed in transfected cells; host or cells: NIH-3T3 (mouse fibroblasts)
The experiment is described as follows: IR cellular autophosphorylation (DELFIA). Format: cell-based. Particulars: NIH-3T3 cells over expressing IR, insulin stimulated. Summed up:
as §1

The structures appear in SMILES notation. pIC50: −log10 of the molar value. Where only a bound is given, the exact number is not on record here.

T1 sequence (P08069 957-1367): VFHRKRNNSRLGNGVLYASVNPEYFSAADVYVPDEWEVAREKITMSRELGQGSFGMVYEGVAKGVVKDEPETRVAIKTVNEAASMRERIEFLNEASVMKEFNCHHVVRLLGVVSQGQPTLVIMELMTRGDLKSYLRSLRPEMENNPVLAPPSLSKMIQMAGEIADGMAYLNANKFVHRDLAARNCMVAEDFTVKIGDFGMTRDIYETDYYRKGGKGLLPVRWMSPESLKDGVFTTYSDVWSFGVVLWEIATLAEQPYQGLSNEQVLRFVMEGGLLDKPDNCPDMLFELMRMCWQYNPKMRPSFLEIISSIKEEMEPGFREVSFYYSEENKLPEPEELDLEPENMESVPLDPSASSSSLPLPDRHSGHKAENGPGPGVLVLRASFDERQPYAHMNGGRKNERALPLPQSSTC
T3 sequence (P08069 31-1367): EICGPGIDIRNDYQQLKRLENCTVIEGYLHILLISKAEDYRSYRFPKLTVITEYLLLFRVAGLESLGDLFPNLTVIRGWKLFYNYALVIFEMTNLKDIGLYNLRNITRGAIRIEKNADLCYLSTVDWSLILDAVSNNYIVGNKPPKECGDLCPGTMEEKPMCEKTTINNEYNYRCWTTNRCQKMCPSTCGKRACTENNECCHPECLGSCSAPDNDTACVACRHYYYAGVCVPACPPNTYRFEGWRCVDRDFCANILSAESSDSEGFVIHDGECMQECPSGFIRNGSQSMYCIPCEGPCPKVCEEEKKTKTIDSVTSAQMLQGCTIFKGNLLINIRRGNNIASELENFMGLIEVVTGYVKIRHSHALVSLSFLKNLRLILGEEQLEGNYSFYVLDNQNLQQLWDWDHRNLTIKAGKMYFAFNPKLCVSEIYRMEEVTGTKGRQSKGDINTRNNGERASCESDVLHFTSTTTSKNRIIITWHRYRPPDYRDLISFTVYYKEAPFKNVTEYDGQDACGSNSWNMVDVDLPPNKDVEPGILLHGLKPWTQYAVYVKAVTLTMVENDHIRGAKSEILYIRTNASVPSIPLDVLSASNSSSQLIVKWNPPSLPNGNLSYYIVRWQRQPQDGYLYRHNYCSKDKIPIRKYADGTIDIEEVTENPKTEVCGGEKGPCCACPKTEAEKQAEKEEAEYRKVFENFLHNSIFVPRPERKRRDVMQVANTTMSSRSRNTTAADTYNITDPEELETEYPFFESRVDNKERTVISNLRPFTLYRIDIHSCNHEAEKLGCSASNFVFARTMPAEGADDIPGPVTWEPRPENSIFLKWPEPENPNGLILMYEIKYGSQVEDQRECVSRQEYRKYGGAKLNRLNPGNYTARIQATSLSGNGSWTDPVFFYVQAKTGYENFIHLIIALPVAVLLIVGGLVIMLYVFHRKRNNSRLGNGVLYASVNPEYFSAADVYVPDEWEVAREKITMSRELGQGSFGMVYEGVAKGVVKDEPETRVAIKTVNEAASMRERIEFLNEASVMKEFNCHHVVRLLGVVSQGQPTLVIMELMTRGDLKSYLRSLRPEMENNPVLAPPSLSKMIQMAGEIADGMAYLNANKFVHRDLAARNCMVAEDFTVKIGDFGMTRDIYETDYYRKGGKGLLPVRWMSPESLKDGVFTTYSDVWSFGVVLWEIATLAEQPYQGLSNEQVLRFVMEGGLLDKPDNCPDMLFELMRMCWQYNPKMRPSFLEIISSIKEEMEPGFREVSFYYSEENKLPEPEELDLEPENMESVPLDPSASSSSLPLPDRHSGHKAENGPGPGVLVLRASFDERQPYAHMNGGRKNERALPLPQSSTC
T2 sequence (P06213 979-1382): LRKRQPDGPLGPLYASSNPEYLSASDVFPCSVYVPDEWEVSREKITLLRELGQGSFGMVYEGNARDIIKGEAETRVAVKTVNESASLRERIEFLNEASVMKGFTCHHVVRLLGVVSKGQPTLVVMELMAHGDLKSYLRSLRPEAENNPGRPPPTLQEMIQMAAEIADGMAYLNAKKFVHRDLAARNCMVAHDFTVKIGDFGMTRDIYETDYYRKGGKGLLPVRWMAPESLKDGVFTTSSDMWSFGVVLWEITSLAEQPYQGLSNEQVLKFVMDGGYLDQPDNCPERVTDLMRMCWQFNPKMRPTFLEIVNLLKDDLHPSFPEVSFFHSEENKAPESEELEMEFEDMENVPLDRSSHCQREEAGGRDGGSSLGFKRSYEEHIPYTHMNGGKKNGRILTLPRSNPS
T4 sequence (P06213 28-1382): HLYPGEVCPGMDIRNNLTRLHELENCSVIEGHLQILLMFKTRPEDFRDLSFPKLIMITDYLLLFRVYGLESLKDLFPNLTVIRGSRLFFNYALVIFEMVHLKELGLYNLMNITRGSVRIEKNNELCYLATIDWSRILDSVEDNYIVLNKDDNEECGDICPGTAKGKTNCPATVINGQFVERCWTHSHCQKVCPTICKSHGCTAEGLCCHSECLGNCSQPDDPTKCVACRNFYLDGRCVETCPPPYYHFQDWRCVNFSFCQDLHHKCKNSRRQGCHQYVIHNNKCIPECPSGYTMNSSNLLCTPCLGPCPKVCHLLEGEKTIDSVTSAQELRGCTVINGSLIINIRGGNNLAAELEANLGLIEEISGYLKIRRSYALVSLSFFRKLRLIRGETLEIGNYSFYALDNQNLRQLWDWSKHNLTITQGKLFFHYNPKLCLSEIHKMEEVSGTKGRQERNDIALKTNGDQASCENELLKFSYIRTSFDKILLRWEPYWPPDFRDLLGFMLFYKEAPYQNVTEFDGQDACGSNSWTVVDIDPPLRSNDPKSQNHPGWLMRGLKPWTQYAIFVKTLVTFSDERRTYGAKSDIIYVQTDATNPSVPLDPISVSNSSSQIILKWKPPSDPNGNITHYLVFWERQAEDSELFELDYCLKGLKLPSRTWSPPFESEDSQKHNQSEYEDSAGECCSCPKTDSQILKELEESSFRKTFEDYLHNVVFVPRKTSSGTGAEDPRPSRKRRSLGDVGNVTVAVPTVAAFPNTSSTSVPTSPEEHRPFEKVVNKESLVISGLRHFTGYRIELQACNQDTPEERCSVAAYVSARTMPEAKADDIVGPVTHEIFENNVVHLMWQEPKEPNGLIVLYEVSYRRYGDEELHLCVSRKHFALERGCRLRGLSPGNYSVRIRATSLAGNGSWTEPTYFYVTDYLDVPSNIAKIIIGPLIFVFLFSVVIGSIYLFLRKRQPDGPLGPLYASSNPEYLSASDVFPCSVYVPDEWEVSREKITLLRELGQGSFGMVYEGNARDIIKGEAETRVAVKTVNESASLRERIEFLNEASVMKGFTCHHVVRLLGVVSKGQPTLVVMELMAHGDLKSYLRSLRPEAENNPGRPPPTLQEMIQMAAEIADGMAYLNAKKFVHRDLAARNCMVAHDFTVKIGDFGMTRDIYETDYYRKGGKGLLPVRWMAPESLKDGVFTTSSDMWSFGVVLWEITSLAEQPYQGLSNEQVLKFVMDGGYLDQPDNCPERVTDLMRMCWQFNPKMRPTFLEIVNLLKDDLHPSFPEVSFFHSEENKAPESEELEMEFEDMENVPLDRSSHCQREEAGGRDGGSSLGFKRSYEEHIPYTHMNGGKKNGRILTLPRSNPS
Experimental for human IR (hIR): Reaction buffer (50 mM HEPES buffer, pH 7.5; 10 mM MgCl2; 3 mM DTT; 1 mM CHAPS; 0.1 mg/mL BSA) for peptide phosphorylation (10 μl volume) contained, in final concentrations, 500 nM biotinylated peptide substrate; 10 μM ATP; and purified, activated hIGF1R or hIR (0.5 nM). Some compounds were initially assayed against IGF1R in buffer without DTT or CHAPS. […] Compounds, titrated in DMSO, are evaluated at eleven concentrations ranging from 50 μM to 0.2 nM. […] Reactions are incubated for 1 hour at room temperature and are stopped by a 5 μl addition of EDTA (to 33 mM). A further addition of 5 μl detection reagents (for final 7 nM Streptavidin-APC (PerkinElmer #CR130-150), 1 nM Europium-labeled anti-phosphotyrosine monoclonal antibody (PerkinElmer #AD0067), added in reaction buffer (without DTT), is required for signal generation. After 30 minutes, signal is read on PerkinElmer Viewlux microplate imager or Wallac Victor fluorometer.
The data for compound concentration responses were plotted as % Inhibition, calculated with the data reduction formula 100*(1-[(U1-C2)/(C1-C2)]), versus concentration of compound, where • U is the unknown value, • C1 is the average control value obtained for DMSO only, and
C2 is the average control value obtained for reactions stopped with EDTA at t=0.

Turning to `COc1cc(N2CCN(S(C)(=O)=O)CC2)c(C)cc1Nc1nccc(-c2c(-c3ccc(OC)c(C(=O)Nc4c(F)cccc4F)c3)nc3ccccn23)n1` [Example 225, N-(2,6-difluorophenyl)-5-{3-[2-({5-methyl-2-(methyloxy)-4-[4-(methylsulfonyl)-1-piperazinyl]phenyl}amino)-4-pyrimidinyl]imidazo[1,2-a]pyridin-2-yl}-2-(methyloxy)benzamide], the IC50 at human IGF1R (hIGF1R) and on human IR (hIR) was below 100 nM throughout. Further, the pIC50 (usually −log10 of the IC50, conventionally taken in molar units) in the experiment on COLO205 (colon) is above 6.60; in experiment [1] it was above 6.60; in experiment [2], above 7.00; in experiment [3] it was above 7.00.
